Experimental findings from US20090074672A1, “Tumor Boundary Imaging” (SRI International, priority 2007, published 2009) are described below.

In this assay the test system is fibrin gel. As to the kind of experiment: TG substrate viability: cross-linking into fibrin gel. Format: biochemical. As to conditions: in the presence of Ca2+. How it is done:
TG Substrate Viability Assays. Viability was tested by: (1) cross-linking into fibrin gel, and (2) reacting with fibrinogen in the presence of Guinea pig liver TG. […] In the presence of Ca2+, cross-linked fibrin clots were formed.

Where no end group is shown, it is not given here.

For the substance “peptide: TG substrate peptide NQEQVSP (SEQ ID NO:01) conjugated to FITC or HiLyte Fluor 750 via N-hydroxysuccinimide chemistry (also: FITC or HiLyte Fluor 750 conjugated via NHS chemistry)”, the “cross-linking into fibrin clot (fluorescence intensity)” value is recorded as “crosslinked into the fibrin clot”.
